Test results: article PMC3299084 (Journal of Medicinal Chemistry, 2012)
Peptide text beside a SMILES is read from it. * marks the point of attachment. X1 = CC(=O)O[C@H]1C(=O)[C@@]2(C)[C@H]([C@H](OC(=O)c3ccccc3)[C@]3(O)C[C@H](OC(=O)[C@H](OC(=O)COCC(=O)OCCCCCCn4cc(CCCC(=O)*)nn4)[C@@H](NC(=O)c4ccccc4)c4ccccc4)C(C)=C1C3(C)C)[C@]1(OC(C)=O)CO[C@@H]1C[C@@H]2O

Experiments:
PC3 cells [1] = experiment: ATP-Lite analysis of cell viability; format: cell-based, human; conditions: 72 hours, 10 nM, EphA2 overexpressing PC3
EphA2 [2] = target: T1, EphA2 (Homo sapiens, UniProt P29317); experiment: EphA2 internalization into lysosomes, confocal imaging; format: cell-based; conditions: PC3 cells, 2 h, 100 μM conjugate or 0.2 μg/mL ephrin-A1 Fc
T1 sequence (P29317 24-976): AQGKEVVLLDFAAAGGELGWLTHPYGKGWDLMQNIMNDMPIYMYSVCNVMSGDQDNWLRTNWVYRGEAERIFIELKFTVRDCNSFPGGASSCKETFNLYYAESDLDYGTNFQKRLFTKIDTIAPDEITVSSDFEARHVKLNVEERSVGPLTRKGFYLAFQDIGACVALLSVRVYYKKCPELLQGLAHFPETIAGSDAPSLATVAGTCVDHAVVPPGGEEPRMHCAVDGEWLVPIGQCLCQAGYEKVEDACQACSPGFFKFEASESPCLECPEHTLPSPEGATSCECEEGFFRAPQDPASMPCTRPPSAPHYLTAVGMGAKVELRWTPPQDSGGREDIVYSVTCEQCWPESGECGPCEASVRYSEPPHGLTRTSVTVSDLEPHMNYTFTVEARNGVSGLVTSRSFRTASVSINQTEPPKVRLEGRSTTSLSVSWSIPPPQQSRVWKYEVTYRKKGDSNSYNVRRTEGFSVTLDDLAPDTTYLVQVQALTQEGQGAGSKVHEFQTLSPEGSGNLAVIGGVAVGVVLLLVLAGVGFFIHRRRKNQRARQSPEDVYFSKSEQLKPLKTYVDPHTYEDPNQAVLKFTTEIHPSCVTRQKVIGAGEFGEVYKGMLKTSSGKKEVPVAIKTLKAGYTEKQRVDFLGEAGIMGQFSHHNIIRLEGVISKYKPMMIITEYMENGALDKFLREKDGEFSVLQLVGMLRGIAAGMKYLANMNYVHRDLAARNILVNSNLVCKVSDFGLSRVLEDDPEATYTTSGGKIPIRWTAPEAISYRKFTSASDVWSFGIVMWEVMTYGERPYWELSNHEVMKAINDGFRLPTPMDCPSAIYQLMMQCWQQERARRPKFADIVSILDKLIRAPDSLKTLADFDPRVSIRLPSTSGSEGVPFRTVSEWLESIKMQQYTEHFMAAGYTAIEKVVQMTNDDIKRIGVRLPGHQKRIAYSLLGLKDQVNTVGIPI

EphA2 Fc = EphA2 Fc (Homo sapiens, UniProt P29317); experiment: ELISA displacement of ephrin-A5 AP from immobilized EphA2 Fc; conditions: ephrin-A5 AP binding to EphA2 Fc
Sequence of EphA2 Fc (P29317 24-537 limits assumed): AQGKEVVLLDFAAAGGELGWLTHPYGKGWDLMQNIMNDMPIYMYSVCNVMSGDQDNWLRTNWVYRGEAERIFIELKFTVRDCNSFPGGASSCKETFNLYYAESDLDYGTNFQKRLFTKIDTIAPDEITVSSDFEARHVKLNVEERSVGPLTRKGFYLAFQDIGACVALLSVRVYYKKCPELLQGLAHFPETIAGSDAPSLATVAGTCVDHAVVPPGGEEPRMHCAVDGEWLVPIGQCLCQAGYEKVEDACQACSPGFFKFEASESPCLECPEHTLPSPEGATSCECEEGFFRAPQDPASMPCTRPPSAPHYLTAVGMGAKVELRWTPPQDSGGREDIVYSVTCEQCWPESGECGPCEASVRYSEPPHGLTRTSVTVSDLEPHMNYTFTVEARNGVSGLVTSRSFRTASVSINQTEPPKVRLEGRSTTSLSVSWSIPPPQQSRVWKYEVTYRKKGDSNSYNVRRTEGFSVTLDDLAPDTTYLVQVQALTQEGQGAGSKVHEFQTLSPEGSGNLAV

EphA2 [3] = target: T1, EphA2; experiment: Quantum dot internalization into lysosomes; conditions: PC3 prostate cancer cells (highly EphA2 expressing), 100 μM
[4] = Bio-distribution: PTX levels in tumor and plasma by LC-MS/MS; format: in vivo, mice
PC3 cells [5] = experiment: Release of native paclitaxel in the presence of PC3 cells; format: cell-based, human; conditions: in the presence of PC3 cells (data not shown)
PC3 tumor xenografts = conditions: intravenous, twice weekly for 3 weeks
Microsomal stability = format: in vitro ADME; conditions: rat, liver microsomes, pH 7.2
Plasma stability = format: in vitro ADME; conditions: rat, plasma (fresh)

Structure (SMILES) | cell death / viability of PC3 cells (PC3 cells [1]) | EphA2 internalization into lysosomes (EphA2 [2]) | displacement of ephrin-A5 (EphA2 Fc) | Qdot uptake / targeting of cells (EphA2 [3]) | concentration at 30 min ([4]; SCID-beige, mouse, plasma, intravenous, 25 mg/kg) [ng/mL] | time to nearly complete release of native paclitaxel (PC3 cells [5]) | signs of toxicity (PC3 tumor xenografts) | mouse body weights (PC3 tumor xenografts; versus vehicle control) | half-life at 4 μM (Microsomal stability) [min] | half-life at 1 μM (Plasma stability) [min] | Plasma levels of PTX ([4]; 30 min after single equimolar intravenous dose (PTX 25 mg/kg)) [ng/mL]
CSCC[C@H](NC(=O)[C@H](C)NC(=O)[C@H](CCSC)NC(=O)[C@H](CO)NC(=O)[C@@H]1CCCN1C(=O)[C@H](Cc1ccc(O)cc1)NC(=O)[C@@H](N)CC(=O)O)C(=O)N[C@@H](Cc1ccc(O)cc1)C(=O)N[C@@H](CO)C(=O)N1CCC[C@H]1C(=O)N[C@@H](CO)C(=O)N[C@H](C(=O)N[C@@H](CCCCNC(=O)CCCc1cn(CCCCCCOC(=O)COCC(=O)O[C@@H](C(=O)O[C@H]2C[C@@]3(O)[C@@H](OC(=O)c4ccccc4)[C@@H]4[C@]5(OC(C)=O)CO[C@@H]5C[C@H](O)[C@@]4(C)C(=O)[C@H](OC(C)=O)C(=C2C)C3(C)C)[C@@H](NC(=O)c2ccccc2)c2ccccc2)nn1)C(=O)O)C(C)C [DYP-PTX, DYPSMAMYSPSV- K*-PTX] (H-DYPSMAMYSPSVK(X1)-OH; N-terminus and C-terminus assumed) | no significant cell killing | does not trigger EphA2 internalization | neither of the control compounds, DYP motif nor DYP-PTX conjugate, show any detectable displacement of ephrin-A5 | does not target PC3 cells | – | – | – | – | – | – | –
CC(=O)O[C@H]1C(=O)[C@@]2(C)[C@H]([C@H](OC(=O)c3ccccc3)[C@]3(O)C[C@H](OC(=O)[C@H](O)[C@@H](NC(=O)c4ccccc4)c4ccccc4)C(C)=C1C3(C)C)[C@]1(OC(C)=O)CO[C@@H]1C[C@@H]2O [PTX, paclitaxel, reference compound] | – | – | – | – | 771 ± 585 | – | – | – | – | – | –
CSCC[C@H](NC(=O)[C@H](CCSC)NC(=O)[C@@H]1CCCN1C(=O)[C@@H](NC(=O)[C@H](CO)NC(=O)[C@H](CC(=O)O)NC(=O)[C@@H]1CCCN1C(=O)[C@H](Cc1ccc(O)cc1)NC(=O)[C@H](C)NC(=O)[C@H](CO)NC(=O)[C@@H](N)Cc1ccc(O)cc1)C(C)C)C(=O)N[C@@H](CO)C(=O)N[C@@H](CCCCNC(=O)CCCc1cn(CCCCCCOC(=O)COCC(=O)O[C@@H](C(=O)O[C@H]2C[C@@]3(O)[C@@H](OC(=O)c4ccccc4)[C@@H]4[C@]5(OC(C)=O)CO[C@@H]5C[C@H](O)[C@@]4(C)C(=O)[C@H](OC(C)=O)C(=C2C)C3(C)C)[C@@H](NC(=O)c2ccccc2)c2ccccc2)nn1)C(=O)O [YSA-PTX] | retained the ability of paclitaxel to induce cell death at low nanomolar concentrations | – | – | – | – | about 60 minutes | no adverse signs of toxicity | not affected | 23 | 43 | 998 ± 742
